Results taken from US20230382915A1, “GCN2 AND PERK KINASE INHIBITORS AND METHODS OF USE THEREOF” (Deciphera Pharmaceuticals, LLC, priority 2021, published 2023).
pIC50: −log10 of the molar value.

Assays:
[1] = tested on: ATF4 in thapsigargin stimulated CCRF-CEM cells (PERK); experiment: CCRF-CEM thapsigargin (TG) ATF4 ELISA; type: cell-based; details: Homo sapiens, 1 μM thapsigargin
Protocol: CCRF-CEM leukemia cells (catalog #CCL-116) were obtained from the American Type Culture Collection (ATTC, Manassas, VA). Briefly, cells were grown in RPMI-1640 medium supplemented with 10% heat-inactivated fetal bovine serum (Invitrogen, Carlsbad, CA) and 1% Penicillin/Streptomycin/L-Glutamine at 37° C., 5% CO2, and 95% humidity. Cells were expanded until reaching one million cells per mL at which time they were subcultured or harvested for assay use. One million five hundred thousand cells per well in 1 mL complete growth medium were dispensed into 12-well plates and incubated overnight. A serial dilution of test compound was added and cells were incubated at 37° C., 5% CO2, and 95% for three hours, then 1 μM thapsigargin was added and cells were incubated for an additional hour at 37° C., 5% CO2, and 95%. Cells were lysed then ATF4 levels were measured using an ELISA assay (Proteintech, Rosemont, IL). Absorbance was measured at 450 nm and 544 nM using a Synergy2 or equivalent reader (Biotek, Winooski VT). Data was analyzed using PRISM software (Graphpad, San Diego, CA) to calculate IC50 values.

[2] = tested on: phospho-GCN2 (Thr899) in HCT116 colorectal cancer cells; experiment: HCT116 amino acid starved (-AA) phospho-GCN2 Western blot; type: cell-based; details: Homo sapiens, HCT-116, 4 h, read-out: HCT116 -AA pGCN2 Western Blot
Protocol: (§1) HCT116 colorectal cancer cells (catalog #CCL-247) were obtained from the American Type Culture Collect (ATTC, Manassas, VA). Briefly, cells were grown in RPMI 1640 supplemented with 10% heat inactivated fetal bovine serum (Invitrogen, Carlsbad, CA) and 1% Penicillin/Streptomycin/L-Glutamine at 37° C., 5% CO2, and 95% humidity. Cells were expanded until reaching 70-95% confluency at which point they were subcultured or harvested for assay use. Cells were seeded in 12-well culture plate at five hundred thousand cells per well in 1 mL complete growth medium and incubated overnight at 37° C., 5% CO2, and 95% humidity. The next day each well was replaced with 1 mL Earle's Balanced Salt Solution (EBSS, Invitrogen, Carlsbad, CA) supplemented with 10% Dialyzed Fetal Bovine Serum, 5.5 mM Glucose, 1% Penicillin/Streptomycin and 1% Vitamin solution (thermo #11120052). A serial dilution of test compound was dispensed into well. Plates were incubated for 4 h at 37° C., 5% CO2, and 95% humidity. […] Western blot was performed on each lysate to quantify phospho-GCN2 (Thr899), total GCN2, ATF4 and beta-Actin. […] Data were analyzed using GraphPad Prism software (GraphPad, San Diego, CA) to calculate IC50 values.

CCRF-CEM leukemia cells = experiment: CCRF-CEM ASNase cell proliferation assay; type: cell-based; details: Homo sapiens, 1 mU/mL ASNase, 72 h
Protocol: CCRF-CEM leukemia cells (catalog #CCL-116) were obtained from the American Type Culture Collect (ATTC, Manassas, VA). Cells were grown in RPMI-1640 medium supplemented with 10% heat-inactivated fetal bovine serum (Invitrogen, Carlsbad, CA) and 1% Penicillin/Streptomycin/L-Glutamine at 37° C., 5% CO2, and 95% humidity. Cells were expanded until reaching one million cells per mL at which time they are subcultured or harvested for assay use. Ten thousand cells per well in 200 μL RPMI-1640 supplemented with 10% heat-inactivated fetal bovine serum and 1% Penicillin/Streptomycin were dispensed into a 96-well black clear bottom plate. A serial dilution of test compound and 1 mU/mL ASNase was added in triplicate and plates were incubated for 72 h at 37° C., 5% CO2, and 95% humidity. At the end of the incubation, 40 μL of a […] solution of resazurin (Sigma, St. Louis, MO) in PBS was added to each well of the plate and plates were incubated for an additional 6 h at 37° C., 5% CO2, and 95% humidity. Plates were read on a Synergy2 or equivalent reader (Biotek, Winooski VT) using an excitation of 540 nm and an emission of 600 nm. Data was analyzed using GraphPad Prism software (GraphPad, San Diego, CA) to calculate IC50 values.

PERK enzyme = PERK enzyme (Homo sapiens (Human), UniProt Q9NZJ5); experiment: Biochemical assay for PERK (coupled pyruvate kinase/lactate dehydrogenase); details: 1 mM ATP
Protocol: Activity of PERK kinase was determined spectroscopically using a coupled pyruvate kinase/lactate dehydrogenase assay that continuously monitors the ATP hydrolysis-dependent oxidation of NADH (e.g., Schindler et al. Science (2000) 289: 1938-1942). Assays were conducted in 384-well plates ([…] final volume) using 10 nM PERK (from Beryllium), 0.25 mg/mL Myelin Basic Protein substrate, 1.5 units pyruvate kinase, 2.1 units lactate dehydrogenase, 1 mM phosphoenol pyruvate, 0.28 mM NADH and 1 mM ATP in assay buffer (100 mM Tris, pH 7.5, 15 mM MgCl2, 0.5 mM DTT, 0.004% (w/v) BSA, and 0.004% Triton X-100). Inhibition of PERK was measured by adding serial diluted test compound (final assay concentration of 1% DMSO). A decrease in absorption at 340 nm was monitored continuously for 6 hours at 30° C. on a multi-mode microplate reader (BioTek). The reaction rate was calculated using the 2-3 h time frame. The reaction rate at each concentration of compound was converted to percent inhibition using controls (i.e., reaction with no test compound and reaction with a known inhibitor) and IC50 values were calculated using software routines in Prism (GraphPad software).

GCN2 kinase = GCN2 kinase (Homo sapiens (Human), UniProt Q9P2K8); experiment: Biochemical assay for GCN2 (TR-FRET kinase activity); details: 1 mM ATP
Protocol: Activity of GCN2 kinase was determined using a TR-FRET kinase activity assay (e.g. Riddle et al. Analytical Biochemistry (2006) 356(1) 108-116). Assays were conducted in 384-well plates (13 μL assay volume) using 2 nM GCN2 (Carna Biosciences), 130 nM GFP-EIf2α (Invitrogen), 0.2 mg/mL E. coli tRNA (sigma) and 1 mM ATP in kinase buffer (Invitrogen). Inhibition of GCN2 was measured by adding serial diluted test compound (final assay concentration of 0.5% DMSO) followed by a 3-hour incubation. Tb-peIF2α (pSer52) antibody (Invitrogen) (2 nM final assay concentration) in kinase buffer containing EDTA (final assay concentration of 20 mM) was added. After a 60 min incubation at room temperature, TR-FRET was monitored using an excitation wavelength of 340 nm and emission wavelengths of 490 nm and 520 nm. The emission ratio (520/490) at each compound concentration of was converted to percent inhibition using controls (i.e., reaction with no test compound and reaction with a known inhibitor) and IC50 values were calculated by fitting a four-parameter sigmoidal curve to the data using Prism (GraphPad software).

[3] = tested on: ATF4 in HCT116 colorectal cancer cells; experiment: HCT116 amino acid starved (-AA) ATF4 Western blot; type: cell-based; details: Homo sapiens, HCT-116, 4 h
Protocol: as §1

[4] = tested on: ATF4 in H929 multiple myeloma cells; experiment: H929 ATF4 ELISA assay; type: cell-based; details: four hours, relative to vehicle treated control
Protocol: H929 multiple myeloma cells (catalog #CRL-9068) were obtained from the American Type Culture Collection (ATTC, Manassas, VA). Briefly, cells were grown in RPMI-1640 medium supplemented with 20% heat-inactivated fetal bovine serum (catalog #A3840002, ThermoFisher Scientific, Waltham, MA), 1% Penicillin/Streptomycin/L-Glutamine (catalog #10378016, ThermoFisher Scientific, Waltham, MA), and 0.05 mM 2-mercaptoethanol (catalog #21985-023, ThermoFisher Scientific, Waltham, MA) at 37° C., 5% CO2, and 95% humidity. Cells were expanded until reaching one million five hundred thousand cells per mL at which time they were sub-cultured or harvested for assay use. One million five hundred thousand cells per well in 1 mL complete growth medium were dispensed into 12-well plates and incubated overnight. A serial dilution of test compound was added, and cells were incubated at 37° C., 5% CO2, and 95% for four hours. Cells were lysed then ATF4 levels were measured using an ELISA assay (Proteintech, Rosemont, IL). Absorbance is measured at 450 nm and 544 nM using a Synergy2 or equivalent reader (Biotek, Winooski VT). Data were analyzed using PRISM software (Graphpad, San Diego, CA) to calculate fold stimulation of cellular ATF4 relative to vehicle treated control.

Chain of PERK enzyme (Q9NZJ5 other isoform, or with tags, fused parts or gaps): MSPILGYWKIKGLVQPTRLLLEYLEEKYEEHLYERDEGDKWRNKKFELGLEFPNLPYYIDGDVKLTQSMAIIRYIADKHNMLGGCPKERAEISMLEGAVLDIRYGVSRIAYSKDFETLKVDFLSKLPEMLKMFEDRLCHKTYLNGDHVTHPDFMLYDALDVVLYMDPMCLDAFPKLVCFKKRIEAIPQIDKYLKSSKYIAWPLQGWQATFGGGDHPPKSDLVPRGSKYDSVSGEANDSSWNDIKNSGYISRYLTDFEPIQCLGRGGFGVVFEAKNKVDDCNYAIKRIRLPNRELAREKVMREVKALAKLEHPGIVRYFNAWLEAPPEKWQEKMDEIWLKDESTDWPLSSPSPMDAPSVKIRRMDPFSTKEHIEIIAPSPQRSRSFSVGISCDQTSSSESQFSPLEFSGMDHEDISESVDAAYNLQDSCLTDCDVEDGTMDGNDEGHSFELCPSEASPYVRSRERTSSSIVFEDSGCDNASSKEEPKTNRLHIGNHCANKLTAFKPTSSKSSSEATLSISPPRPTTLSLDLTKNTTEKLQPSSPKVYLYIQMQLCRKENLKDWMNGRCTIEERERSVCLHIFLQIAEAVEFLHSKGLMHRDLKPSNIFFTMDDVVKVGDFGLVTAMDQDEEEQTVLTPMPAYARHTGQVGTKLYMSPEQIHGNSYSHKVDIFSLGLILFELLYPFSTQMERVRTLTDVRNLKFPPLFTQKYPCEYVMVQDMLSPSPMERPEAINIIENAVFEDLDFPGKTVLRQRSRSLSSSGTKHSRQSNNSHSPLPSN
Chain of GCN2 kinase (Q9P2K8 whole entry): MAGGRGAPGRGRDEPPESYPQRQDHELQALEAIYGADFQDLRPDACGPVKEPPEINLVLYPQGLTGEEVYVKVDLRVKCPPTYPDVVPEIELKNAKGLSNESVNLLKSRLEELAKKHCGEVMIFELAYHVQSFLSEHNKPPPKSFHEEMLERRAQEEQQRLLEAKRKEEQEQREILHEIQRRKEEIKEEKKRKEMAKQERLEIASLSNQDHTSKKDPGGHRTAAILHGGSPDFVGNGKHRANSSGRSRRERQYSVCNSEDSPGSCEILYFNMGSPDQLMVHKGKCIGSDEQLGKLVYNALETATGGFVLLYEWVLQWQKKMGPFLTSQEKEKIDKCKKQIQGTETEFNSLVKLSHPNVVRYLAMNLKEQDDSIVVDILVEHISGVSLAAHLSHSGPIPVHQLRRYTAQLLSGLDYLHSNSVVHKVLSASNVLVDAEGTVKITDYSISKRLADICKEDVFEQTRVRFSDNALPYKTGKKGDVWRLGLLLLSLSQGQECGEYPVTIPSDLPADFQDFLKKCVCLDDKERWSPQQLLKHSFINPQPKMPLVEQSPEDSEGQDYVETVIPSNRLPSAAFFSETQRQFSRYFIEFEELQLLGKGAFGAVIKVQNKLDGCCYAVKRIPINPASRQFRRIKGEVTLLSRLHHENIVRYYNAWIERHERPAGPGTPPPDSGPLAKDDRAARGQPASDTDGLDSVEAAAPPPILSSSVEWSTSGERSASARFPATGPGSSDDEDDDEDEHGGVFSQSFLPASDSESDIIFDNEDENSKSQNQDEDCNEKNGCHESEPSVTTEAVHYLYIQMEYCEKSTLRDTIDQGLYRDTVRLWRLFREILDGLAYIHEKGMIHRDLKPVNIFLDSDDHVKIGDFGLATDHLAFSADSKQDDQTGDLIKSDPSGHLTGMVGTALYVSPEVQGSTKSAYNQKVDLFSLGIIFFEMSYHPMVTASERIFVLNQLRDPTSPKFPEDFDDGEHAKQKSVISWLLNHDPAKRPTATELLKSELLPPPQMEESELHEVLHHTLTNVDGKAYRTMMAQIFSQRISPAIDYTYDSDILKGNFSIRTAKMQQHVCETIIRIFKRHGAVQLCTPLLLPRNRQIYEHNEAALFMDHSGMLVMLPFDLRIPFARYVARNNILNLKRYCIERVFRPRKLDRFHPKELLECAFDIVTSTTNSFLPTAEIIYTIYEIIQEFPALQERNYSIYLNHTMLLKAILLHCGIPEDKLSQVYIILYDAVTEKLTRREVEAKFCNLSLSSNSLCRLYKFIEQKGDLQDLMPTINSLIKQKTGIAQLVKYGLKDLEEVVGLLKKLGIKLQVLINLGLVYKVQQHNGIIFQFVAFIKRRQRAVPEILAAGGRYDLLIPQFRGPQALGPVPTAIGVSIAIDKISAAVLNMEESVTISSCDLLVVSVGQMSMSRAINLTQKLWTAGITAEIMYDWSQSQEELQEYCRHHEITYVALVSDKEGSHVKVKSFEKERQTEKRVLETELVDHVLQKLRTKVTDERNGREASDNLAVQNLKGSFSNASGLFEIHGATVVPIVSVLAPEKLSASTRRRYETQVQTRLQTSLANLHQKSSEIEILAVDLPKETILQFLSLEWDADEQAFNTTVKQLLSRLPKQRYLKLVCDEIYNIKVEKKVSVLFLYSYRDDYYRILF

Structure (SMILES)	pIC50 [1]	pIC50 [2]	pIC50 (CCRF-CEM leukemia cells)	pIC50 (PERK enzyme)	pIC50 (GCN2 kinase)	pIC50 [3]	H929 NS ATF4 ELISA (ATF4 stim) [4]
CC(C)n1cc(-c2cccc(NS(=O)(=O)c3cc(Cl)cc(CO)c3Cl)c2F)c2c(N)ncnc21 [Example 3]	≥ 7.00	≥ 7.00	≥ 7.00	≥ 7.00	≥ 7.00	≥ 7.00	
Cn1cc(-c2cc(F)cc(NS(=O)(=O)c3cc(Cl)cc(CO)c3Cl)c2F)c2c(N)ncnc21 [Example 14]	6.30 to 7.00		6.30 to 7.00	≥ 7.00	≥ 7.00		++ (an ATF4 stim greater than 5-fold and less than or equal to 10 fold)
Cn1nc(-c2cccc(NS(=O)(=O)c3cc(Cl)cc(CO)c3Cl)c2F)c2c(N)ncnc21 [Example 21]	6.30 to 7.00		6.30 to 7.00	≥ 7.00	≥ 7.00		++ (an ATF4 stim greater than 5-fold and less than or equal to 10 fold)
COc1c(CO)cc(Cl)cc1S(=O)(=O)Nc1cccc(-c2cn(C)c3ncnc(N)c23)c1F [Example 24]	6.30 to 7.00		5.00 to 6.00	≥ 7.00	5.00 to 6.00		++ (an ATF4 stim greater than 5-fold and less than or equal to 10 fold)
Cc1cc(CO)c(Cl)c(S(=O)(=O)Nc2cccc(-c3cn(C)c4ncnc(N)c34)c2F)c1 [Example 25]	≥ 7.00		6.30 to 7.00	≥ 7.00	6.30 to 7.00		+++ (an ATF4 stim greater than 10 fold and less than or equal to 20 fold)
Cc1c(CO)cc(Cl)cc1S(=O)(=O)Nc1cccc(-c2cn(C)c3ncnc(N)c23)c1F [Example 26]	≥ 7.00		6.30 to 7.00	≥ 7.00	≥ 7.00		+++ (an ATF4 stim greater than 10 fold and less than or equal to 20 fold)
